These compounds were tested against T1, mPTPB (Mycobacterium tuberculosis protein tyrosine phosphatase B) (Mycobacterium tuberculosis, UniProt I6WXK4) (assay: biochemical). Details: read-out: 50 uM inhibition rate (%).
T1 construct: gene ptpB
Design: mPTPB phosphatase inhibition, pNPP substrate, absorbance at 405 nm

T1 sequence (I6WXK4 whole entry, looked up): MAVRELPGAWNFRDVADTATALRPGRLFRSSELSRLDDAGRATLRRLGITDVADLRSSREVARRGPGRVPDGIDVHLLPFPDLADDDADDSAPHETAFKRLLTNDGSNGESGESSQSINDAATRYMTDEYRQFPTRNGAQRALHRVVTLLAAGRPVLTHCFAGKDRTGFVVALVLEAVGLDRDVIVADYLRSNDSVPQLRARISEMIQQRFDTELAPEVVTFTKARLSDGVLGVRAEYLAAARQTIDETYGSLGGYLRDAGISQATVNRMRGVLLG

Row | SMILES | inhibition at 50 µM
1 | CC(C)[C@H]1CC[C@@]2(C)CC[C@]3(CO)CC4=C(C(=O)O)CC[C@H]4[C@]4(C)C[C@@H]4[C@H]3[C@H]12 [asperterpenoid A] | 98.2%
2 | CC(C)[C@H]1CC[C@@]2(C)CC[C@]3(C(=O)O)CC4=C(C(=O)O)CC[C@H]4[C@]4(C)C[C@@H]4[C@H]3[C@H]12 [asperterpenoid B] | 98.9%
3 | CC(C)[C@H]1C[C@@H](O)[C@@]2(C)CC[C@]3(CO)CC4=C(C(=O)O)CC[C@H]4[C@]4(C)C[C@@H]4[C@H]3[C@H]12 [asperterpenoid C] | 45.1%
4 | CC(C)C1CCC2(C)CCC3(C)CC4=C(C(=O)O)CCC4C4(C)CC4C3C12 (stereo not shown) [compound 1, asperterpenoid D] | 52.8%
5 | CC(C)C1CCC2(C)CCC3(C)CC4=C(CO)CCC4C4(C)CC4C3C12 (stereo not shown) [compound 2, asperterpenoid E] | 46.8%
6 | CC(C)C1CCC2(C)CCC3(CO)CC4=C(CO)CCC4C4(C)CC4C3C12 (stereo not shown) [compound 3, asperterpenoid F] | 48%
7 | CC1=C2C[C@@]3(C)CC[C@]4(C)CC[C@H](C(C)C)[C@H]4[C@@H]3[C@H]3C[C@@]3(C)[C@@H]2CC1 [preasperterpenoid A] | 31.1%
